In patent US11034672B1, “Tyrosine kinase inhibitor compositions, methods of making and methods of use” (Black Diamond Therapeutics, Inc., priority 2018, dated 2021) one finds IC50 data, which are given here for ten compounds.

Type in all cases: cell-based
Assay [1] concerns the target T1, EGFR V3 (Homo sapiens, UniProt P00533, DELINS30-297G).
T1 construct: expressed in transfected cells; host or cells: BaF3 (murine pro-B), retroviral pMXs-IRES-Blasticidin
Put plainly: BaF3 cell proliferation assay, EGFR V3 (Table A). Particulars: potency code, 3 days, CellTiterGlo, read-out: EGFR V3 (Activity for Inhibiting EGFR). In outline: (§1)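 BaF3 + retroviral EGFR/HER2 mutant (two rounds of spinfection, 8 μg/ml polybrene); 10 μg/ml Blasticidin selection 1 wk; IL-3 withdrawn to select IL-3-independent growth. EC50 from cell proliferation.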

The target of assay [2] is T2, EGFR WT (Homo sapiens, UniProt P00533). Put plainly: Activity for inhibiting EGFR (Table A), EGFR WT. Particulars: read-out: EGFR WT, potency code (IC50).
T2 sequence (P00533 25-1210 N540K): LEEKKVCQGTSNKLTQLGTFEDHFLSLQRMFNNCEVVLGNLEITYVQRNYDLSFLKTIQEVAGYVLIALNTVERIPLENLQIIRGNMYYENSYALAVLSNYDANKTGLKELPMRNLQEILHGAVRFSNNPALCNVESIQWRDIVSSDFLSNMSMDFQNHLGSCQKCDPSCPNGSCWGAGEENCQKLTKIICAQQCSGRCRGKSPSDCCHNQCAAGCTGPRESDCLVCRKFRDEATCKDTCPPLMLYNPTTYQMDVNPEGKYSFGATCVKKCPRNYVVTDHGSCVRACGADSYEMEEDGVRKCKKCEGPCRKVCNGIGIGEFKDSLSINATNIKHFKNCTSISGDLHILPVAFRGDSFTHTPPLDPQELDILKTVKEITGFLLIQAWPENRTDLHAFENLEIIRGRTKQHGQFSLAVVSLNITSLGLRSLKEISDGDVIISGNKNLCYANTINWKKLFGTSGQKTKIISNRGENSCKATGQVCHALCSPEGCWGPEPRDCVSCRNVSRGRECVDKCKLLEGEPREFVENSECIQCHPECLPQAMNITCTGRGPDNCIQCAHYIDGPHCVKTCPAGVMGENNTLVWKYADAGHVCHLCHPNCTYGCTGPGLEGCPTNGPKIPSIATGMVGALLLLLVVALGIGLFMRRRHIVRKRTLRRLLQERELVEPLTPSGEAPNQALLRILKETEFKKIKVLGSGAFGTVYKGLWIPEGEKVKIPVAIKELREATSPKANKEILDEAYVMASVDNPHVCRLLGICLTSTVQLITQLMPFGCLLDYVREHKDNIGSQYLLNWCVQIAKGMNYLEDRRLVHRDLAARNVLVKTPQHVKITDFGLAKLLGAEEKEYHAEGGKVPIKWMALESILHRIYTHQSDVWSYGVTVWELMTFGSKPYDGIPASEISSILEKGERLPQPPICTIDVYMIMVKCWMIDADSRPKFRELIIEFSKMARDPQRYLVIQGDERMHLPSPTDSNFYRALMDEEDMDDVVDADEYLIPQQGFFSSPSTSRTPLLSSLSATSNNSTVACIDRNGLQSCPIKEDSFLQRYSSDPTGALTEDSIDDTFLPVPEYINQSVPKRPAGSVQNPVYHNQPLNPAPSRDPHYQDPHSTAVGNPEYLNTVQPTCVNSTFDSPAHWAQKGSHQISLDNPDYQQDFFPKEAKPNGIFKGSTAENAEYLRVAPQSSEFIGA
Assay [3] concerns the target T3, HER2 S310F (Homo sapiens, UniProt P04626, S310F).
T3 construct: expressed in transfected cells; host or cells: BaF3 (murine pro-B)
Nature of the assay: Activity for inhibiting HER2 (Table B), HER2 S310F. Conditions: read-out: HER2 S310F, potency code (IC50). The method, then:
(§2) EC50 values were determined with the same application.

Assay [4] addresses T2, EGFR WT. Nature of the assay: BaF3 cell proliferation assay, EGFR WT (Table A). Particulars: potency code, 3 days, CellTiterGlo, read-out: EGFR WT (Activity for Inhibiting EGFR). In outline: as §1
Assay [5] deals with T3, HER2 S310F. Put plainly: BaF3 cell proliferation assay, HER2 S310F (Table B). Conditions: potency code, 3 days, CellTiterGlo, read-out: HER2 S310F (Activity for Inhibiting HER2). In general terms: ATP-based viability assays read luminescence as a measure of living cells.
In assay [6] the target is T1, EGFR V3. Nature of the assay: Activity for inhibiting EGFR (Table A), EGFR V3 (EGFR-Viii). Particulars: read-out: EGFR V3, potency code (IC50).
Assay [7] has as its target T4, HER2 WT (Homo sapiens, UniProt P04626). Put plainly: BaF3 cell proliferation assay, HER2 WT (Table B). Conditions: potency code, 3 days, CellTiterGlo, read-out: HER2 WT (Activity for Inhibiting HER2).
Assay [8] concerns the target T4, HER2 WT. Nature of the assay: Activity for inhibiting HER2 (Table B), HER2 WT.
The target of assay [9] is T5, HER2 YVMA (Homo sapiens, UniProt P04626, INS775YVMA).
T5 construct: expressed in transfected cells; host or cells: BaF3 (murine pro-B)
T5 sequence (P04626 with tags, fused parts or gaps INS775YVMA): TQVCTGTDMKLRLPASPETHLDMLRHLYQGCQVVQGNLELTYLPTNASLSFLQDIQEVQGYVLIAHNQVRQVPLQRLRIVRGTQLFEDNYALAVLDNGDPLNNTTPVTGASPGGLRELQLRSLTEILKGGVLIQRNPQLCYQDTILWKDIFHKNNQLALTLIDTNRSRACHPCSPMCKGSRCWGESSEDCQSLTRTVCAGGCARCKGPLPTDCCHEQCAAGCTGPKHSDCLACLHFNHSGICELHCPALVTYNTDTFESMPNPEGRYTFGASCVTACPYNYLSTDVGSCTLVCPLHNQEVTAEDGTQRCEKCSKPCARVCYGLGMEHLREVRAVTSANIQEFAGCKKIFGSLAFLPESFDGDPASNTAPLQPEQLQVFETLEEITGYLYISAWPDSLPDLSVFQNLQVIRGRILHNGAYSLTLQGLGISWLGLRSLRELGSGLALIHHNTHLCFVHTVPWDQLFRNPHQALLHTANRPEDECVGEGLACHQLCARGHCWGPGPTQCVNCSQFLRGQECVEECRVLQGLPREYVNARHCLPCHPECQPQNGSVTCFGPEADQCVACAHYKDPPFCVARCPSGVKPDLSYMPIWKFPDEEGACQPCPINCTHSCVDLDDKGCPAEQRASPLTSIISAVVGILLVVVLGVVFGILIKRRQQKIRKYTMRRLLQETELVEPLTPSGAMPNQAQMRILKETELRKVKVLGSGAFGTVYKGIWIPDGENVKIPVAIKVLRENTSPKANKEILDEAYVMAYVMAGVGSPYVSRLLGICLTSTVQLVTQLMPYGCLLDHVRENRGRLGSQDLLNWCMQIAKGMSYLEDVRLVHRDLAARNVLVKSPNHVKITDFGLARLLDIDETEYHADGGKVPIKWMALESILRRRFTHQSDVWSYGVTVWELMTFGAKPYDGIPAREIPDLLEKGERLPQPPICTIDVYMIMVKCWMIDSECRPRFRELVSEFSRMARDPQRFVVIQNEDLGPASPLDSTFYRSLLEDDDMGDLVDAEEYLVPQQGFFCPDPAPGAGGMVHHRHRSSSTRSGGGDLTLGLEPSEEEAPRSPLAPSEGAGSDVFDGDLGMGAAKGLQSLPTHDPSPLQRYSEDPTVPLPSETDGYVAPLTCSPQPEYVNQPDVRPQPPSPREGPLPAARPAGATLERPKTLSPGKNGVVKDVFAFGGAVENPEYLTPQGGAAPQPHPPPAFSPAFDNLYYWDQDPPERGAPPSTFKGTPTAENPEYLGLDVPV
Put plainly: BaF3 cell proliferation assay, HER2 YVMA (Table B). Particulars: potency code, 3 days, CellTiterGlo, read-out: HER2 YVMA (Activity for Inhibiting HER2).

In assay [10] the target is T5, HER2 YVMA. Put plainly: Activity for inhibiting HER2 (Table B), HER2 YVMA. Particulars: read-out: HER2 YVMA, potency code (IC50). The method, then: as §2
Setting [11] is: Table B, read-out: HER2 WT, potency code (IC50).
Setting [12] is: text lists of compounds, read-out: IC50 value for inhibiting wild-type HER2.

SMILES strings stand for the structures. Where only a bound is given, the exact number is not on record here.

T1 sequence (P00533 with tags, fused parts or gaps DELINS30-297G): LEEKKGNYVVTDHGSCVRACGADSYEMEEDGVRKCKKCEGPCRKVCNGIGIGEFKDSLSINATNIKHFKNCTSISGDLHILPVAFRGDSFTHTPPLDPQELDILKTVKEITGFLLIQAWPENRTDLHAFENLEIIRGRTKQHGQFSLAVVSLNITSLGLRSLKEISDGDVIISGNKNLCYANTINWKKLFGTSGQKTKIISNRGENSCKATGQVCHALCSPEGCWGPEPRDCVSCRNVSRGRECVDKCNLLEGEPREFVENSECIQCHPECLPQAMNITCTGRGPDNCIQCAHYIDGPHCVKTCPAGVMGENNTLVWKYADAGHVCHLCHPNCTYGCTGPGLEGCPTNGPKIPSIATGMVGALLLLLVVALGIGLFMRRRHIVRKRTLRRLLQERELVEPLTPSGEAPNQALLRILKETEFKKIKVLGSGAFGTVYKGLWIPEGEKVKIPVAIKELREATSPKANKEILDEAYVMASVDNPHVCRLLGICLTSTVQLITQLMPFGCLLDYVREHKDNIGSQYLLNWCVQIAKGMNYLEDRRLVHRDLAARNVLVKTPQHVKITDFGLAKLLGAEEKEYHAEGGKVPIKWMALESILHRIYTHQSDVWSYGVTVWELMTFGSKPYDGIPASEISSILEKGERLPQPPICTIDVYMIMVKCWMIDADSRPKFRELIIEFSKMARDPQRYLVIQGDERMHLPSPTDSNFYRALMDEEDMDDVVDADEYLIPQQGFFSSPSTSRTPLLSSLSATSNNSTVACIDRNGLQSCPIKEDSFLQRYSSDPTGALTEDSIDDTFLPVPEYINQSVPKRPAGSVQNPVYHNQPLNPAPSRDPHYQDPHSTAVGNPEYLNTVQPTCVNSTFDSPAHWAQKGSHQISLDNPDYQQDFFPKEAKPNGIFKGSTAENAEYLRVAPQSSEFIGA
T3 sequence (P04626 23-1255 S310F): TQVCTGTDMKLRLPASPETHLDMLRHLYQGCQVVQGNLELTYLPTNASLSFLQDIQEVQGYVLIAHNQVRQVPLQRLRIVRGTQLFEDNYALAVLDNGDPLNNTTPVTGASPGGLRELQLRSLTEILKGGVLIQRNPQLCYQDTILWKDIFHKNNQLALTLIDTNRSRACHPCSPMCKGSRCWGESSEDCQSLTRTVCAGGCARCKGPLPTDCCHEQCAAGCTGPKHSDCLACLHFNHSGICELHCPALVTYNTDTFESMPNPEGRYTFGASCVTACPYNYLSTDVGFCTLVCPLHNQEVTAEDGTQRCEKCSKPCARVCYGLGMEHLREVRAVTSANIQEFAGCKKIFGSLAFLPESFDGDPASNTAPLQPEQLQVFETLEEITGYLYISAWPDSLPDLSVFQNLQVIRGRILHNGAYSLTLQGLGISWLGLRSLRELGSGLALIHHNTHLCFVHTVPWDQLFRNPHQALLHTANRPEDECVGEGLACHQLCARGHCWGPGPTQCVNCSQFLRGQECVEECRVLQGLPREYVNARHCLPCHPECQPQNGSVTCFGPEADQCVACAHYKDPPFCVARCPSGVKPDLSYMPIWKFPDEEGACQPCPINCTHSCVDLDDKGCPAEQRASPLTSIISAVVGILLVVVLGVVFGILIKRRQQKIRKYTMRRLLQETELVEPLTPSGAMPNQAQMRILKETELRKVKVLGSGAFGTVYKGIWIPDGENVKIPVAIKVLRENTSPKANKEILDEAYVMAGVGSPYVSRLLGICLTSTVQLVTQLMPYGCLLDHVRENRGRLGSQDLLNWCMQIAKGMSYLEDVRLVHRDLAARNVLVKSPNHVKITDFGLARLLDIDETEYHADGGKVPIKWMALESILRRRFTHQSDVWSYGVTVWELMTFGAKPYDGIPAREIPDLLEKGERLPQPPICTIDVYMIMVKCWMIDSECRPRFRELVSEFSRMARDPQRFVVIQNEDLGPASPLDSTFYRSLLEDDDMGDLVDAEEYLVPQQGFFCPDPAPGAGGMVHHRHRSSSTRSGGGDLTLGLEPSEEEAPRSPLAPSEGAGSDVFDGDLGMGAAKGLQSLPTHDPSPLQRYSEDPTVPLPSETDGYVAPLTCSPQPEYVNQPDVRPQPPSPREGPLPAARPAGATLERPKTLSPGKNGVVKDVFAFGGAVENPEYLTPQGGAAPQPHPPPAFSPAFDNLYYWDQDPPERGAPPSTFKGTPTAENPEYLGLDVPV

With `C=CC(=O)Nc1cc2c(Nc3ccc(OCc4cccc(C(F)(F)F)n4)c(Cl)c3)ncnc2cc1OCCN1CCOCC1` [compound 23], the IC50 is 100 to 200 nM on EGFR V3 [1]; above 1000 nM at EGFR WT [2]; 100 to 200 nM at HER2 S310F [3]; above 1000 nM at EGFR WT [4]; 100 to 200 nM on HER2 S310F [5]; 100 to 200 nM at EGFR V3 [6]. Also, the IC50 at HER2 WT [7] and on HER2 WT [8] (setting [11]) was 100 to 200 nM throughout.
Regarding `C=CC(=O)Nc1cc2c(Nc3ccc(Oc4cccc(Cl)c4)cc3)ncnc2cc1OCCN1CCOCC1` [compound 37], the IC50 at EGFR V3 [1] was 100 to 200 nM; on EGFR WT [2] it was above 1000 nM; on HER2 S310F [3], 50 to 100 nM; at EGFR WT [4], above 1000 nM; at HER2 S310F [5] it was 50 to 100 nM; on EGFR V3 [6], 100 to 200 nM. Also, the IC50 at HER2 WT [7] and at HER2 WT [8] (setting [11]) was 50 to 100 nM throughout.
Consider `C=CC(=O)Nc1cc2c(Nc3ccc(OCc4ccccn4)c(Cl)c3)ncnc2cc1N1CCN2CCC1C2` (stereo not shown) [compound 43], for which the IC50 on EGFR V3 [1] is 100 to 200 nM; at EGFR WT [2], above 1000 nM; at HER2 S310F [3], 100 to 200 nM; on EGFR WT [4] it was above 1000 nM; on HER2 S310F [5], 100 to 200 nM; at EGFR V3 [6], 100 to 200 nM. In addition, the IC50 at HER2 WT [7] and at HER2 WT [8] (setting [11]) was 50 to 100 nM each time.
Take `C=CC(=O)Nc1cc2c(Nc3ccc(OCc4ccccn4)c(Cl)c3)ncnc2cc1N1CC(N2CCOCC2)C1` [compound 44]: the IC50 was 100 to 200 nM on EGFR V3 [1]; 300 to 500 nM on EGFR WT [2]; 300 to 500 nM at HER2 S310F [3]; 300 to 500 nM at EGFR WT [4]; 300 to 500 nM on HER2 S310F [5]; 100 to 200 nM on EGFR V3 [6]. The IC50 on HER2 WT [7] and at HER2 WT [8] (setting [11]) was 50 to 100 nM throughout.
Turning to `C=CC(=O)Nc1cc2c(Nc3ccc(OCc4ccccn4)c(Cl)c3)ncnc2cc1N1CCC2(CCN(C)C2)C1` (stereo not shown) [compound 46], the IC50 on EGFR V3 [1] lay within 50 to 100 nM; on EGFR WT [2], 300 to 500 nM; at HER2 S310F [3], 100 to 200 nM; at EGFR WT [4], 300 to 500 nM; on HER2 S310F [5] it was 100 to 200 nM; at EGFR V3 [6], 50 to 100 nM. Besides, the IC50 on HER2 WT [7] is 20 to 30 nM; on HER2 WT [8] (setting [11]), 20 to 30 nM; on HER2 WT [8] (setting [12]) it was at most 50 nM.
With `C=CC(=O)Nc1cc2c(Nc3ccc(OCc4ccccn4)cc3)ncnc2cc1OCCN1CC2CN(C)CC2C1` (stereo not shown) [compound 81], the IC50 is 100 to 200 nM on EGFR V3 [1]; 200 to 300 nM on EGFR WT [2]; 100 to 200 nM on HER2 S310F [3]; 200 to 300 nM at EGFR WT [4]; above 1000 nM at HER2 YVMA [9]; above 1000 nM on HER2 YVMA [10]. Also, the IC50 is 100 to 200 nM at HER2 S310F [5], 100 to 200 nM at EGFR V3 [6] and at most 50 nM on HER2 WT [8] (setting [12]).
Regarding `C=CC(=O)Nc1cc2c(Nc3ccc(OCc4cccnn4)c(Cl)c3)ncnc2cc1OCCCN1CC(OC)C1` [compound 177], the IC50 lay within 30 to 50 nM on EGFR V3 [1]; 500 to 1000 nM at EGFR WT [2]; 10 to 20 nM at HER2 S310F [3]; 500 to 1000 nM on EGFR WT [4]; 50 to 100 nM on HER2 YVMA [9]; 50 to 100 nM on HER2 YVMA [10]. The figures for the IC50 at HER2 S310F [5] and on EGFR V3 [6] were 10 to 20 nM and 30 to 50 nM, respectively.
Regarding `C=CC(=O)Nc1cc2c(Nc3ccc(OCc4cnccn4)c(Cl)c3)ncnc2cc1OCCN1CC(OC)C1` [compound 178], the IC50 at EGFR V3 [1] was 30 to 50 nM; at EGFR WT [2], above 1000 nM; on HER2 S310F [3] it was 30 to 50 nM; on EGFR WT [4] it was above 1000 nM; at HER2 YVMA [9], 100 to 200 nM; on HER2 YVMA [10], 100 to 200 nM. In addition, the IC50 at HER2 S310F [5] and at EGFR V3 [6] was 30 to 50 nM in each case.
As to `C=CC(=O)Nc1cc2c(Nc3ccc(OCc4cnccn4)c(Cl)c3)ncnc2cc1OCCCN1CC(OC)C1` [compound 179], the IC50 at EGFR V3 [1] lay within 30 to 50 nM; at EGFR WT [2] it was 500 to 1000 nM; on HER2 S310F [3] it was 10 to 20 nM; on EGFR WT [4], 500 to 1000 nM; on HER2 YVMA [9] it was 30 to 50 nM; at HER2 YVMA [10], 30 to 50 nM. The IC50 at HER2 S310F [5] was 10 to 20 nM; at EGFR V3 [6] it was 30 to 50 nM.
Turning to `C=CC(=O)Nc1cc2c(Nc3ccc(OCc4cnccn4)c(Cl)c3)ncnc2cc1OCCN1CCN(C)CC1` [compound 180], the IC50 lay within 30 to 50 nM on EGFR V3 [1]; 500 to 1000 nM at EGFR WT [2]; 20 to 30 nM on HER2 S310F [3]; 500 to 1000 nM on EGFR WT [4]; 100 to 200 nM on HER2 YVMA [9]; 100 to 200 nM on HER2 YVMA [10]. Moreover, the IC50 on HER2 S310F [5] was 20 to 30 nM; on EGFR V3 [6], 30 to 50 nM.
